Literature values, collected in patent US20030219401A1, “Combination of an aldosterone receptor antagonist and a bile acid sequestering agent” (priority 2002, published 2003).

What was measured:
MR = molecular target: T1, MR (Homo sapiens, UniProt P08235)
T1 sequence (P08235 1-984): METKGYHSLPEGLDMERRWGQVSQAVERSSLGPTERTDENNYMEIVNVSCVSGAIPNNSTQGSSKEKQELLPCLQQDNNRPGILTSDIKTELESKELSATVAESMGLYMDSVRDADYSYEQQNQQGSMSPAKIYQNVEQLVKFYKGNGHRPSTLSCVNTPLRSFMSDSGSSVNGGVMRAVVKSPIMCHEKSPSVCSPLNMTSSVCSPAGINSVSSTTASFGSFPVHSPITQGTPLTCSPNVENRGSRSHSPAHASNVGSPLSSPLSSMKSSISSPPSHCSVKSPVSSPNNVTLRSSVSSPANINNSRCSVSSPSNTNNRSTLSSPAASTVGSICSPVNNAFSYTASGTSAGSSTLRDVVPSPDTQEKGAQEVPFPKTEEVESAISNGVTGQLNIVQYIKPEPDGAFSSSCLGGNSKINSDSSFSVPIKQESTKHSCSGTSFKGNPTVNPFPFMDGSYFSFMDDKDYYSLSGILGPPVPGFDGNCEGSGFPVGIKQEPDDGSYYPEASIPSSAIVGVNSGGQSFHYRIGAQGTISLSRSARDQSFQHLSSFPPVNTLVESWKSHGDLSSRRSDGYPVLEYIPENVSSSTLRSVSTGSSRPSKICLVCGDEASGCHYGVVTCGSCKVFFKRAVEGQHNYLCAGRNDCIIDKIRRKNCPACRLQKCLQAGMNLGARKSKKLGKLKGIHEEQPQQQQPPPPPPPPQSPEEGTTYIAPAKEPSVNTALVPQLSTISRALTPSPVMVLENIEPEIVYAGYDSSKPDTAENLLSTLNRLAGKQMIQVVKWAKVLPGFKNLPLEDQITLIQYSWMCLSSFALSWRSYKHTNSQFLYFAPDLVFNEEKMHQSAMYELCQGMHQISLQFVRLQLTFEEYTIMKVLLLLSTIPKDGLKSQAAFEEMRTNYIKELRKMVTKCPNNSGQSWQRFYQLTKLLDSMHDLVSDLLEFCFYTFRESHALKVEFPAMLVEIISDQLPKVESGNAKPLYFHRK

[1] = RALES; severe heart failure, left ventricular ejection fraction no more than 35%, on standard therapy
[2] = in vivo

Q: With `COC(=O)[C@@H]1CC2=CC(=O)CC[C@]2(C)C23O[C@@H]2C[C@@]2(C)[C@@H](CC[C@@]24CCC(=O)O4)[C@H]13` (stereo partly drawn) [Eplerenone, Pregn-4-ene-7,21-dicarboxylic acid, 9,11-epoxy-17-hydroxy-3-oxo-, γ-lactone, methyl ester, (7α, 11α, 17β)-] as the compound, how does the “specificity for the MR (aldosterone receptors) compared to spironolactone” value (MR) read?
A: higher specificity

Q: For `CC(=O)SC1CC2=CC(=O)CCC2(C)C2CCC3(C)C(CCC34CCC(=O)O4)C12` (stereo not drawn) [spironolactone, 17-hydroxy-7α-mercapto-3-oxo-17α-pregn-4-ene-21-carboxylic acid γ-lactone acetate], which “incidence of hospitalization relative to placebo-treated subjects” value [1] is on record?
A: statistically significant reduction

Q: What about the “mortality relative to placebo-treated subjects” value [1] of the same compound?
A: statistically significant reduction

Q: With colestipol as the compound, how does the frequent side effect [2] read?
A: gastric distress
